The text below walks through data of patent US11208399B2, “NLRP3 inflammasome inhibitors” (Novartis AG, priority 2019, dated 2021).

A word on the pIC50: it is the IC50 on a negative log10 scale, so that one unit is a factor of ten.

Assay [1] has as its system NLRP3 inflammasome. The assay can be described thus: IL-1β secretion assay in PMA-differentiated THP-1 cells, nigericin-activated (HTRF). Type of assay: cell-based. As to conditions: Homo sapiens, 15 μM nigericin, 3 hours, read-out: IL-1β IC50. Here is the method:
10 μL supernatant was removed, and IL-1p levels were monitored using an HTRF assay (CisBio, #621L1PEC) according to manufacturers' instructions. Viability and pyroptosis was monitored with the addition of PrestoBlue cell viability reagent (Life Technologies, #A13261) directly to the cell culture plate.
IC50 values were calculated from the plot of percentage of inhibition versus the inhibitor concentration by a logistics fit according to: y=A2+(A1−A2)/(1+(x/IC50)^p) where y is the %-inhibition at the inhibitor concentration, x. A1 is the lowest inhibition value, i.e. 0%, and A2 the maximum inhibition value, i.e. 100%. The exponent, p, is the Hill coefficient. The curve fitting was conducted with an internally developed software suite.
NLRP3-dependent IL-1β secretion was stimulated in PMA-differentiated THP-1 cells by the addition of nigericin, and cytokines were measured in the […] after 3 hours. As discussed above, activation of the NLRP3 inflammasome requires both an NF-kB-dependent priming step and the addition of a NLRP3 activator.

Assay [2] relates to NF-kB-dependent TNF-α secretion. The assay can be described thus: TNF-α secretion assay in THP-1 cells (counter screen, HTRF). In kind it is cell-based. As to conditions: Homo sapiens, Pam3CSK4-stimulated, 3 hours. Here is the method: Monocytic THP-1 cells were maintained according to providers' instructions in RPMI media as described above. […] Experimental compounds were prepared and added as described above. TNF-α secretion was triggered by the addition of either 1 μg/mL LPS (Sigma, #L4391) or 100 ng/mL Pam3CSK4 (Invivogen, #tlrl-pms) depending on the experiment, and cells were incubated for 3 hours. 10 μL supernatant was removed, and TNF-α levels were monitored using an HTRF assay (CisBio, #62TNFPEC) according to manufacturers' instructions. Viability was monitored as described above.
IC50 values were calculated from the plot of percentage of inhibition versus the inhibitor concentration by a logistics fit according to: y=A2+(A1−A2)/(1+(x/IC50)^p) where y is the %-inhibition at the inhibitor concentration, x. A1 is the lowest inhibition value, i.e. 0%, and A2 the maximum inhibition value, i.e. 100%. The exponent, p, is the Hill coefficient. The curve fitting was conducted with an internally developed software suite. […]

pIC50: −log10 of the molar value. Counter-ions that a name gives are not always drawn.

For the compound `Cc1cc(C(F)(F)F)cc(O)c1-c1ccc(NCC(C)(C)N)nn1` [Ex 29, 2-(6-((2-Amino-2-methylpropyl)amino)pyridazin-3-yl)-3-methyl-5-(trifluoromethyl)phenol], the pIC50 in assay [1] is 6.77; in assay [2], below 4.00.

Take `CC(C)(O)CNc1ccc(-c2c(O)cc(C(F)(F)F)cc2Cl)nn1` [Ex 30, 3-Chloro-2-(6-((2-hydroxy-2-methylpropyl)amino)pyridazin-3-yl)-5-(trifluoromethyl)phenol]: the pIC50 in assay [1] is 6.67; in assay [2], below 4.00.

Take `Oc1cc(C(F)(F)F)cc(Cl)c1-c1ccc(N[C@H]2C[C@@H](O)C2)nn1` [Ex 31, 3-Chloro-2-(6-((cis-3-hydroxycyclobutyl)amino)pyridazin-3-yl)-5-(trifluoromethyl)phenol]: the pIC50 in assay [1] is 6.78; in assay [2] it was below 4.00.

Regarding `Oc1cc(C(F)(F)F)cc(Cl)c1-c1ccc(N[C@H]2C[C@H](O)C2)nn1` [Ex 32, 3-Chloro-2-(6-((trans-3-hydroxycyclobutyl)amino)pyridazin-3-yl)-5-(trifluoromethyl)phenol], the pIC50 in assay [1] was 6.66; in assay [2] it was 4.07.

With `Cc1ncccc1CNc1ccc(-c2c(O)cc(C(F)(F)F)cc2Cl)nn1` [Ex 34, 3-Chloro-2-(6-(((2-methylpyridin-3-yl)methyl)amino)pyridazin-3-yl)-5-(trifluoromethyl)phenol], the pIC50 in assay [1] was 6.30; in assay [2] it was below 4.00.

Take `Cc1ncccc1CNc1ccc(-c2c(O)cc(Cl)cc2C(F)(F)F)nn1` [Ex 35, 5-Chloro-2-(6-(((2-methylpyridin-3-yl)methyl)amino)pyridazin-3-yl)-3-(trifluoromethyl)phenol]: the pIC50 in assay [1] was 6.61; in assay [2], below 4.00.

For `OCCNc1ccc(-c2c(O)cc(C(F)(F)F)cc2Cl)nn1` [Ex 37, 3-Chloro-2-(6-((2-hydroxyethyl)amino)pyridazin-3-yl)-5-(trifluoromethyl)phenol], the negative-log IC50 (pIC50) was 6.42 in assay [1] and below 4.00 in assay [2].

On to `Cc1cc(C(F)(F)F)cc(O)c1-c1ccc(Nc2cncnc2)nn1` [Ex 43, 3-Methyl-2-(6-(pyrimidin-5-ylamino)pyridazin-3-yl)-5-(trifluoromethyl)phenol], for which the pIC50 was 6.55 in assay [1] and 4.60 in assay [2].

For `Cc1cc(C(F)(F)F)cc(O)c1-c1ccc(NC2(C)CCCN(C)C2)nn1` (stereo not drawn) [Ex 52, 2-(6-((1,3-Dimethylpiperidin-3-yl)amino)pyridazin-3-yl)-3-methyl-5-(trifluoromethyl)phenol TFA-salt], the pIC50 is 6.73 in assay [1] and below 4.00 in assay [2].

For the compound `Cc1cc(-c2c(C)cc(C(F)(F)F)cc2O)nnc1N[C@H]1C[C@@](C)(O)C1` [Ex 54, 2-(6-(((cis)-3-Hydroxy-3-methylcyclobutyl)amino)-5-methylpyridazin-3-yl)-3-methyl-5-(trifluoromethyl)phenol], the pIC50 in assay [1] was 7.93; in assay [2], 4.46.

Consider `Cc1cc(N[C@H]2C[C@@](C)(O)C2)nnc1-c1ccc(C(F)(F)F)cc1O` [Ex 55, 2-(6-(((cis)-3-Hydroxy-3-methylcyclobutyl)amino)-4-methylpyridazin-3-yl)-5-(trifluoromethyl)phenol], for which the negative-log IC50 (pIC50) is 7.34 in assay [1] and 4.35 in assay [2].

`Cc1cc(C(F)(F)F)cc(O)c1-c1cc(C(F)(F)F)c(N[C@H]2C[C@@](C)(O)C2)nn1` [Ex 56, 2-(6-(((cis)-3-Hydroxy-3-methylcyclobutyl)amino)-5-(trifluoromethyl)pyridazin-3-yl)-3-methyl-5-(trifluoromethyl)phenol]: the pIC50 in assay [1] was 8.08; in assay [2], below 4.00.

Regarding `Cc1cc(C(F)(F)F)cc(O)c1-c1ccc(N[C@H]2CCC[C@H](O)C2)nn1` [Ex 57, 2-(6-(((1S,3S)-3-Hydroxycyclohexyl)amino)pyridazin-3-yl)-3-methyl-5-(trifluoromethyl)phenol], the results for the pIC50 in assay [1] and in assay [2] were 6.65 and 4.08, respectively.

As to `Cc1cc(C(F)(F)F)cc(O)c1-c1ccc(N[C@@H]2CCC[C@@H](O)C2)nn1` [Ex 58, 2-(6-(((1R,3R)-3-Hydroxycyclohexyl)amino)pyridazin-3-yl)-3-methyl-5-(trifluoromethyl)phenol], the pIC50 is 7.23 in assay [1] and below 4.00 in assay [2].

With `Cc1cc(C(F)(F)F)cc(O)c1-c1ccc(N[C@@H]2CCCN(C)C2=O)nn1` [Ex 59, (R)-3-((6-(2-Hydroxy-6-methyl-4-(trifluoromethyl)phenyl)pyridazin-3-yl)amino)-1-methylpiperidin-2-one], the pIC50 in assay [1] was 7.44; in assay [2] it was below 4.00.

With `Cc1cc(C(F)(F)F)cc(O)c1-c1ccc(NC[C@@H](F)C(C)(C)O)nn1` [Ex 60, (R)-2-(6-((2-Fluoro-3-hydroxy-3-methylbutyl)amino)pyridazin-3-yl)-3-methyl-5-(trifluoromethyl)phenol], the pIC50 in assay [1] is 6.86; in assay [2], below 4.00.

For the compound `Cc1cc(C(F)(F)F)cc(O)c1-c1ccc(N[C@@H]2CCC(=O)NC2)nn1` [Ex 61, (R)-5-((6-(2-Hydroxy-6-methyl-4-(trifluoromethyl)phenyl)pyridazin-3-yl)amino)piperidin-2-one], the pIC50 in assay [1] is 7.18; in assay [2], below 4.00.

Take `C[C@]1(O)C[C@@H](Nc2cc(C(F)(F)F)c(-c3ccc(C(F)(F)F)cc3O)nn2)C1` [Ex 66, 2-(6-(((cis)-3-Hydroxy-3-methylcyclobutyl)amino)-4-(trifluoromethyl)pyridazin-3-yl)-5-(trifluoromethyl)phenol]: the pIC50 is 6.73 in assay [1] and below 4.48 in assay [2].

On to `Cc1cc(C(F)(F)F)cc(O)c1-c1ccc(N[C@H]2C[C@](O)(C(F)(F)F)C2)nn1` [Ex 67, 2-(6-(((cis)-3-Hydroxy-3-(trifluoromethyl)cyclobutyl)amino)pyridazin-3-yl)-3-methyl-5-(trifluoromethyl)phenol], for which the pIC50 in assay [1] is 7.40; in assay [2], 4.34.

Take `Cc1cc(N[C@H]2C[C@@](C)(O)C2)nnc1-c1ccc(Cl)cc1O` [Ex 68, 5-Chloro-2-(6-(((cis)-3-hydroxy-3-methylcyclobutyl)amino)-4-methylpyridazin-3-yl)phenol]: the negative-log IC50 (pIC50) in assay [1] is 7.05; in assay [2], below 4.00.

Regarding `C[C@]1(O)C[C@@H](Nc2cc(C(F)(F)F)c(-c3ccc(Cl)cc3O)nn2)C1` [Ex 69, 5-Chloro-2-(6-(((cis)-3-hydroxy-3-methylcyclobutyl)amino)-4-(trifluoromethyl)pyridazin-3-yl)phenol], the pIC50 was 6.37 in assay [1] and below 4.48 in assay [2].

For the compound `Cc1cc(-c2c(C)cc(C(F)(F)F)cc2O)nnc1NCC(C)(C)O` [Ex 72, 2-(6-((2-Hydroxy-2-methylpropyl)amino)-5-methylpyridazin-3-yl)-3-methyl-5-(trifluoromethyl)phenol], the pIC50 in assay [1] is 7.35; in assay [2], below 4.00.

Regarding `Cc1cc(NCC(C)(C)O)nnc1-c1c(C)cc(C(F)(F)F)cc1O` [Ex 73, 2-(6-((2-Hydroxy-2-methylpropyl)amino)-4-methylpyridazin-3-yl)-3-methyl-5-(trifluoromethyl)phenol], the pIC50 was 6.81 in assay [1] and 4.26 in assay [2].

`Cc1cc(C(F)(F)F)cc(O)c1-c1ccc(NC[C@@H]2C[C@H](F)CN2)nn1` [Ex 75, 2-(6-((((2S,4S)-4-Fluoropyrrolidin-2-yl)methyl)amino)pyridazin-3-yl)-3-methyl-5-(trifluoromethyl)phenol]: the pIC50 in assay [1] was 7.74; in assay [2], below 4.00.
